Assay results reported in BindingDB's records for patent US10023539 (Bayer Pharma Aktiengesellschaft, 2018).

Biological target: N-lysine methyltransferase SMYD2 (Homo sapiens, UniProt Q9NRG4)
Assay: Scintillation Proximity Assay (SPA) for Detection of SMYD2 Enzymatic Inhibition
Conditions: pH 9
Protocol: To this end, 100-fold concentrated compound solutions (in DMSO) were previously prepared by serial dilution (1:3.4) of 2 mM stocks in a clear low volume 384-well source microtiter plate (Greiner Bio-One), from which 50 nl of compound solutions were transferred into a white low volume test microtiter plate from the same supplier. […] The samples were then incubated for 15 min at 22° C. to allow pre-equilibration of the putative enzyme-inhibitor complexes before the start of the methylation reaction, which was initiated by the addition of 2.5 μl 2-fold concentrated solution (in assay buffer) of titrated S-Adenosyl-L-Methionine (3H-SAM, Perkin Elmer, final concentration: 60 nM) and p53 Peptide substrate (final concentration: 1.0 μM). The resulting mixture (5 μl final volume) was shortly centrifuged (2 min., 1500 rpm) and incubated at 22° C. during 30 min.

N-lysine methyltransferase SMYD2, sequence (Q9NRG4 whole entry): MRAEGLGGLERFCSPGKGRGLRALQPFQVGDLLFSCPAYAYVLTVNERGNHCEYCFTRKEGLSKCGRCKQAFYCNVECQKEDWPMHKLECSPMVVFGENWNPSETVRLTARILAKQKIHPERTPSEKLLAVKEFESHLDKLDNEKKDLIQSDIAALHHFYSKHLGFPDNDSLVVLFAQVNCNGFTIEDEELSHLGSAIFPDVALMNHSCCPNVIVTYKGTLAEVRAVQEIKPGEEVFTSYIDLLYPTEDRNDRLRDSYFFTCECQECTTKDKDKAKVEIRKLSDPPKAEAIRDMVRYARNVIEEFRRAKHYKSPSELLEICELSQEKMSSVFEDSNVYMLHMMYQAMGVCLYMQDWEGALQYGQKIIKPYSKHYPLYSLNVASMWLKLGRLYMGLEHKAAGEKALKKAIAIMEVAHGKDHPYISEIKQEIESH

IC50: 231 nM
Structure (SMILES): CCN(C(=O)[C@@H](C)NC)C1CN(/C(=N\C#N)Nc2cccc(OC(F)F)c2)N=C1c1ccc(Cl)c(C)c1 (stereo partly specified) [US10023539, Example 37]
